In a compilation of properties of binary mixtures (doi:10.1016/s1004-9541(08)60072-5):

Assay: xn = mol fraction of the nth substance listed
Conditions: 101 kPa

CN(C)C=O + CCCC[n+]1ccn(C)c1.F[P-](F)(F)(F)(F)F
x1 = 1
Conditions	viscosity [mPa·s]
293.15 K	0.91
298.15 K	0.87
308.15 K	0.78
313.15 K	0.75
318.15 K	0.72

CCCC[n+]1ccn(C)c1.F[P-](F)(F)(F)(F)F + CN(C)C=O
viscosity [mPa·s]
Conditions	x2 = 0	x2 = 0.1002	x2 = 0.2	x2 = 0.3002	x2 = 0.3999	x2 = 0.5	x2 = 0.6	x2 = 0.7	x2 = 0.7999	x2 = 0.8999
293.15 K	265	151.1	94.6	59.6	–	23.41	12.37	6.86	3.71	1.9
298.15 K	205.6	114.5	73.4	47.4	32.09	19.44	10.57	6.02	3.35	1.77
303.15 K	165.7	88.2	58	38.1	26.34	16.3	9.11	5.32	3.03	1.62
308.15 K	133.9	68.8	45.9	–	21.74	13.74	–	–	2.73	1.5
313.15 K	110.8	54.9	37.4	25.68	18.3	11.82	6.94	4.22	2.51	1.4
318.15 K	–	44.6	–	21.55	15.57	10.24	–	3.82	2.3	1.31
